Measured values reported in patent US10603357B2, “Therapeutic TREM-1 peptides” (Universite de Lorraine, priority 2004, dated 2020).

Tested on: human monocytes
Experiment: in vitro stimulation of monocytes: TNF-α, IL-1β and sTREM-1 release
Assay type: cell-based
Details: P5 or control peptide 10 to 100 ng/mL, rIL-10 500 U/mL
Method: For cell activation, primary monocytes were cultured in 24-well flat-bottom tissue culture plates in the presence of LPS (1 μg/mL). In some experiments this stimulus was provided in combination with P5 (10 to 100 ng/mL), control peptide (10 to 100 ng/mL) or rIL-10 (500 U/mL). To activate monocytes through TREM-1, an agonist anti-TREM-1 mAb (10 μg/mL) was added as indicated. Cell-free supernatants were analysed for production of TNF-α, IL-1β. and sTREM-1 by ELISA or immunodot. All experiments were performed in triplicate and data are expressed as means (SEM). • a: Media • b: P5 10 ng/mL • c: Anti-TREM-1 • d: LPS • e: LPS+Anti-TREM-1 • f: LPS+P5 10 ng/mL • g: LPS+P5 50 ng/mL • h: LPS+P5 100 ng/mL • i: LPS+IL10
Ten mL of peripheral blood samples were collected on EDTA-K from 5 healthy volunteer donors originating from laboratory staff. After dilution in RPMI (Life Technologies, Grand Island, N.Y.) v/v, blood was centrifuged for 30 min at room temperature over a Ficoll gradient (Amersham Pharmacia, Uppsala, Sweden) to isolate PBMC. The cells recovered above the gradient were washed and counted. In order to deplete the suspensions of lymphocytes, cells were then plated in 24-well flat-bottom tissue culture plates (Corning, Corning, N.Y.) at a concentration of 5×10^6/mL and allowed to adhere during 2 hours at 37° C. The resulting lymphocyte suspension was discarded and the adhering monocytic cells were maintained in a 5% CO2 incubator at 37° C. in complete medium (RPMI 1640, 0.1 mM sodium pyruvate, […], 50 μg/mL Streptomycin; Life Technologies) supplemented with 10% FCS (Invitrogen, Cergy, France).
For activation, monocytes were cultured in the presence of E. coli LPS (0111:B4, 1 μg/mL, Sigma-Aldrich, La Verpillière, France). Cell viability was assessed by trypan blue exclusion and by measuring lactate dehydrogenase release. In some experiments, this stimulus was given in combination with TNF-α (5 to 100 ng/mL, R&D Systems, Lille, France), IL-1β (5 to 100 ng/mL, R&D Systems), rIFN-γ (up to 100 U/mL, R&D Systems), rIL-10 (500 U/ml, R&D Systems) or up to 100 ng/mL of P5 or control peptide.
In order to activate monocytes through TREM-1, an anti-TREM-1 agonist monoclonal antibody (R&D Systems) was added as follows: flat-bottom plates were precoated with 10 μg/mL anti-TREM-1 per well. After thorough washing in phosphate buffered saline (PBS), the monocyte suspensions were added at a similar concentration as above. Some experiments were performed in the presence of protease inhibitors (PMSF and Protease Cocktail Inhibitor; Invitrogen). Cell-free supernatants were assayed for the production of TNF-α and IL-1β by ELISA according to the recommendations of the manufacturer (BD Biosciences, San Diego, USA). To address the effect of P5 on NF-κB activity in monocytes, an ELISA-based assay was performed (BD Mercury™ Transfactor Kit, BD Biosciences). Monocytes were cultured for 24 hours in the presence of E. coli LPS (O111:B4, 1 μg/mL), and/or an agonist anti-TREM-1 monoclonal antibody (10 μg/mL), and/or P5 (100 ng/mL). Whole-cell extracts were then prepared and levels of NF-κB p50 and p65 were determined according to the recommendations of the manufacturer. All experiments were performed in triplicate and data are expressed as means (SEM). Identification and Quantitation of sTREM-1 Release
Primary monocytes suspensions were cultured as described above. The cells were treated with E. coli LPS (0111:B4, 1 μg/mL) for 24 hours at 37° C. Cell-conditioned medium was submitted to Western-blotting using an anti-TREM-1 monoclonal antibody (R&D Systems) in order to confirm the presence of 27 kDa material recognized by anti-TREM-1. Soluble TREM-1 levels were measured by assessing the optical intensity of bands on immunodots by means of a reflectance scanner and the Quantity One Quantitation Software (Bio-Rad, Cergy, France) as reported elsewhere (18). […]

LQVTDSGLYRCVIYHPP [P5]
TNF-α and IL-1β production (release of inflammatory cytokines) in monocyte supernatant (LPS 1 μg/mL or LPS + anti-TREM-1 mAb): reduced, in a concentration-dependent manner
release of sTREM-1 from monocytes cultured with LPS (LPS 1 μg/mL): increased
